Test results as given in ChEMBL document CHEMBL5725244, “IRE-1α inhibitors” (2016).

Experiment: Inhibition Assay: A fusion protein comprising glutathione S transferase (GST) and human IRE-1α (GST-IRE-1α) obtained from a 500 ml baculovirus-infected insect cell culture can be used to measure IRE-1α activity in vitro.Five ul of a reaction mixture comprising 1x reaction buffer (5x reaction buffer is 100 mM Hepes pH 7.5, 250 mM KOAc, 2.5 mM MgCl2), 3 mM DTT, and 0.4% polyethylene glycol water is added to each well of 384 well plates. Twenty-five nanoliters of a 1 mM test compound solution are added to test wells. Three ul of a 128 ng/ml IRE-1α preparation are added to each test well and to positive control wells (final concentration 5.82 ng/well). Negative control wells contain only reaction mixture and test compound.After spinning the plates at 1200 rpm for 30 seconds, 3 ul of an IRE-1α human mini-XBP-1 mRNA stem-loop substrate 5'-[…]-3' (SEQ ID NO:1), labeled with the fluorescent dye Cy5 at the 5' end and Black Hole Quencher 2 (BH2) at the 3' end, are added to each well of a control plate. The plates are again spun at 1200 rpm for 30 seconds. Final concentrations for the assay are: 63 nM IRE-1α substrate, 5.82 ng IRE-1α protein, and 2.5 uM test compound. The plates are covered with lids and incubated for one hour at 30° C. The plates are then transferred to an ACQUEST microplate reader. Data is analyzed using data analysis software, and the percent activity of IRE-1α is calculated.

Row | SMILES | IC50
1 | OCc1c(O)ccc2ccc(N3CCCC3)cc12 | > 1000 nM
2 | CN(Cc1ccccc1)C1CCN(c2ccc3c(C=O)c(O)ccc3c2)C1 (configuration not stated) | > 1000 nM
3 | CN1CCN(c2ccc3ccc(O)c(CO)c3c2)CC1 | > 1000 nM
4 | OCc1c(O)ccc2cc(N3CCOCC3)ccc12 | > 1000 nM
5 | O=C(C1CCN(c2ccc3ccc(O)c(CO)c3c2)C1)N1CCCCC1 (configuration not stated) | > 1000 nM
6 | CN1CCN(C2CCN(c3ccc4ccc(O)c(CO)c4c3)C2)CC1 (configuration not stated) | > 1000 nM
7 | CN(Cc1ccccc1)C(=O)C1CCN(c2ccc3ccc(O)c(CO)c3c2)C1 (configuration not stated) | > 1000 nM
